The text below walks through data of patent publication US20230339981A1, “KRAS G12D MODULATING COMPOUNDS” (priority 2022, published 2023).

By IC50 is commonly meant the point on the concentration scale where inhibition reaches its midpoint. Lower therefore signals higher potency. For orientation: EC50 means the midpoint of the concentration-response curve. Low readings indicate higher potency in that assay, high ones lower potency in that assay.

For assay [1], the target named is GDP-loaded KRAS G12D (Homo sapiens (Human), UniProt P01116, G12D). Description: KRAS G12D (GDP) biochemical assay (TR-FRET probe displacement). Type of assay: binding. To be noted: 2 hours. The gist of the method: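 TR-FRET probe displacement: 1:3 DMSO serial dilutions pre-incubated 30 min with GDP-bound KRAS G12D, followed by Eu-streptavidin/probe for 2 h at room temperature (Hepes pH 7.4, NaCl, MgCl2, Tween-20 buffer). IC50 defined as concentration halving TR-FRET ratio, from sigmoidal dose-response fit.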
GDP-loaded KRAS G12D, sequence (P01116-2 other isoform, or with tags, fused parts or gaps G12D): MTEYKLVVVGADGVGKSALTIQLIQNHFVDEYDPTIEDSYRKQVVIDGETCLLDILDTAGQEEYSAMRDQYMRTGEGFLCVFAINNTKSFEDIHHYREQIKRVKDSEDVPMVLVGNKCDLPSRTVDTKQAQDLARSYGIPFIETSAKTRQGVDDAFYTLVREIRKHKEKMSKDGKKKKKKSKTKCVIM

The subject of assay [2] is GP2D (KRAS G12D) cells. The experiment in a line: 2D cell viability assay (CellTiter-Glo). Type of assay: cell-based. To be noted: GP2d, 96 h, 4 days. The gist of the method: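 Viability was read by CellTiter-Glo after 4 days at 37 °C of 2D culture of KRAS G12D GP2D cells (1000/well, RPMI, 10% FBS) on pre-spotted threefold compound dilutions. EC50 was fitted with a sigmoidal dose-response model as the point of half-maximal luminescence loss.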
For orientation: In ATP-based viability assays light output follows the ATP content of the culture.

Assay [3] concerns AsPC-1 (KRAS G12D) cells. Description: 3D cell viability assay (spheroids, CellTiter-Glo 3D). It is filed as cell-based. The note with it: Homo sapiens, ASPC1, 96 h, AsPC-1 cells, 3D spheroids, 4 days. How it is done: Example C. 3D Cell Viability Assay
Compounds were tested in a 384-well format for their ability to inhibit the viability of AsPC-1 (KRAS G12D) cells in 3D assays. On day 0, 1000 cells/well (80 μL volume per well) in DMEM with 10% FBS, and Penicillin-Streptomycin-Glutamine were plated in 384-well Ultra-Low Attachment Spheroid Microplates (Corning, Catalog #3830) on the BioTEK EL406 liquid dispenser with a 5 μL dispensing cassette (BioTek 7170011). The plates were incubated at 37° C., 5% CO2 for 3 days to allow spheroid formation. On day 3, compounds were serially diluted (1:3) in DMSO. The Biomek FX was used to add 400 nL of test molecule per well. The plates were incubated at 37° C., 5% CO2 for 4 days before addition of CellTiter-Glo 3D (Promega, Catalog #9683) reagent and measurement of luminescence signal. EC50 values were defined as the compound concentration that causes a 50% decrease in luminescence signal and were calculated using a sigmoidal dose-response model to generate curve fits.

`Oc1cc(-c2nc3c4c(nc(OC[C@@]56CCCN5C[C@H](F)C6)nc4c2F)N2C[C@H]4CC[C@H](N4)[C@H]2CO3)c2c(OC(F)(F)F)cccc2c1` [Example 3, 4-((5aS,6S,9R)-1-fluoro-12-(((2R,7aS)-2-fluorotetrahydro-1H-pyrrolizin-7a(5H)-yl)methoxy)-5a,6,7,8,9,10-hexahydro-5H-4-oxa-3,10a,11,13,14-pentaaza-6,9-methanonaphtho[1,8-ab]heptalen-2-yl)-5-(trifluoromethoxy)naphthalen-2-ol] gave an IC50 in assay [1] of 2 nM. Moreover, the EC50 in assay [2] was determined as 24 nM; in assay [3], 160 nM.
Molecule `C#Cc1c(F)ccc2cccc(-c3nc4c5c(nc(OC[C@@]67CCCN6C[C@H](F)C7)nc5c3F)N3C[C@H]5CC[C@H](N5)[C@H]3CO4)c12` [Example 4, (5aS,6S,9R)-2-(8-ethynyl-7-fluoronaphthalen-1-yl)-1-fluoro-12-(((2R,7aS)-2-fluorotetrahydro-1H-pyrrolizin-7a(5H)-yl)methoxy)-5a,6,7,8,9,10-hexahydro-5H-4-oxa-3,10a,11,13,14-pentaaza-6,9-methanonaphtho[1,8-ab]heptalene] displayed an IC50 in assay [1] of 4 nM. Further, the EC50 in assay [2] was 45 nM; in assay [3] it was 92 nM.
For `Oc1cc(-c2nc3c4c(nc(OC[C@@]56CCCN5C[C@H](F)C6)nc4c2F)N2C[C@H]4CC[C@H](N4)[C@H]2CO3)c2c(Cl)c(F)ccc2c1` [Example 9, 5-chloro-6-fluoro-4-((5aS,6S,9R)-1-fluoro-12-(((2R,7aS)-2-fluorotetrahydro-1H-pyrrolizin-7a(5H)-yl)methoxy)-5a,6,7,8,9,10-hexahydro-5H-4-oxa-3,10a,11,13,14-pentaaza-6,9-methanonaphtho[1,8-ab]heptalen-2-yl)naphthalen-2-ol], the IC50 in assay [1] amounted to 0.5 nM. Besides, the figures for the EC50 in assay [2] and in assay [3] were 20 nM and 77 nM, respectively.
In assay [1], `C#Cc1c(F)ccc2cc(O)cc(-c3nc4c5c(nc(OC[C@]67CC(=C)CN6C[C@H](F)C7)nc5c3F)N3C[C@H]5CC[C@H](N5)[C@H]3CO4)c12` [Example 13, 5-ethynyl-6-fluoro-4-((5aS,6S,9R)-1-fluoro-12-(((2R,7aR)-2-fluoro-6-methylenetetrahydro-1H-pyrrolizin-7a(5H)-yl)methoxy)-5a,6,7,8,9,10-hexahydro-5H-4-oxa-3,10a,11,13,14-pentaaza-6,9-methanonaphtho[1,8-ab]heptalen-2-yl)naphthalen-2-ol] showed an IC50 of 0.4 nM. Besides, the EC50 in assay [2] is 2 nM; in assay [3], 17 nM.
Regarding `Oc1cc(-c2nc3c4c(nc(OC[C@@]56CCCN5C[C@H](F)C6)nc4c2F)N2C[C@H]4CC[C@H](N4)[C@H]2CO3)c2c(Cl)cccc2c1` [Example 17, 5-chloro-4-((5aS,6S,9R)-1-fluoro-12-(((2R,7aS)-2-fluorotetrahydro-1H-pyrrolizin-7a(5H)-yl)methoxy)-5a,6,7,8,9,10-hexahydro-5H-4-oxa-3,10a,11,13,14-pentaaza-6,9-methanonaphtho[1,8-ab]heptalen-2-yl)naphthalen-2-ol], the half-maximal inhibitory concentration (IC50) in assay [1] turned out to be 0.4 nM. Moreover, the EC50 in assay [2] was 49 nM; in assay [3], 180 nM.
With `Oc1cc(-c2nc3c4c(nc(OC[C@@]56CCCN5C[C@H](F)C6)nc4c2F)N2C[C@H]4CC[C@H](N4)[C@H]2CO3)c2ccccc2c1` [Example 20, 4-((5aS,6S,9R)-1-fluoro-12-(((2R,7aS)-2-fluorotetrahydro-1H-pyrrolizin-7a(5H)-yl)methoxy)-5a,6,7,8,9,10-hexahydro-5H-4-oxa-3,10a,11,13,14-pentaaza-6,9-methanonaphtho[1,8-ab]heptalen-2-yl)naphthalen-2-ol], the IC50 in assay [1] is 7 nM. In addition, the EC50 in assay [2] was 210 nM; in assay [3], greater than 1000 nM.
On the same counts, the results for `C#Cc1c(F)ccc2cc(O)cc(-c3nc4c5c(nc(OC[C@@]67CCCN6C[C@H](F)C7)nc5c3F)N3C[C@H]5CC[C@H](N5)[C@H]3CC4)c12` [Example 22, 5-ethynyl-6-fluoro-4-((5aR,6S,9R)-1-fluoro-12-(((2R,7aS)-2-fluorotetrahydro-1H-pyrrolizin-7a(5H)-yl)methoxy)-4,5,5a,6,7,8,9,10-octahydro-3,10a,11,13,14-pentaaza-6,9-methanonaphtho[1,8-ab]heptalen-2-yl)naphthalen-2-ol] are 0.1 nM, 0.6 nM and 2 nM.
Take `C#Cc1c(F)ccc2cccc(-c3nc4c5c(nc(OC[C@@]67CCCN6C[C@H](F)C7)nc5c3F)N3C[C@H]5CC[C@H](N5)[C@H]3CC4)c12` [Example 23, (5aR,6S,9R)-2-(8-ethynyl-7-fluoronaphthalen-1-yl)-1-fluoro-12-(((2R,7aS)-2-fluorotetrahydro-1H-pyrrolizin-7a(5H)-yl)methoxy)-4,5,5a,6,7,8,9,10-octahydro-3,10a,11,13,14-pentaaza-6,9-methanonaphtho[1,8-ab]heptalene]: in assay [1], the IC50 was 1 nM. The 50% effective concentration (EC50) in assay [2] was found to be 9 nM; in assay [3], 31 nM.
Turning to `Oc1cc(-c2nc3c4c(nc(OC[C@@]56CCCN5C[C@H](F)C6)nc4c2F)N2C[C@H]4CC[C@H](N4)[C@H]2CC3)c2ccccc2c1` [Example 24, 4-((5aR,6S,9R)-1-fluoro-12-(((2R,7aS)-2-fluorotetrahydro-1H-pyrrolizin-7a(5H)-yl)methoxy)-4,5,5a,6,7,8,9,10-octahydro-3,10a,11,13,14-pentaaza-6,9-methanonaphtho[1,8-ab]heptalen-2-yl)naphthalen-2-ol], in assay [1], the IC50 was determined as 1 nM. For the same molecule, the half-maximal effective concentration (EC50) in assay [2] is 17 nM; in assay [3], 190 nM.
On the same counts, the results for `Oc1cc(-c2nc3c4c(nc(OC[C@@]56CCCN5C[C@H](F)C6)nc4c2F)N2C[C@H]4CC[C@H](N4)[C@H]2CC3)c2c(F)c(F)ccc2c1` [Example 27, 5,6-difluoro-4-((5aR,6S,9R)-1-fluoro-12-(((2R,7aS)-2-fluorotetrahydro-1H-pyrrolizin-7a(5H)-yl)methoxy)-4,5,5a,6,7,8,9,10-octahydro-3,10a,11,13,14-pentaaza-6,9-methanonaphtho[1,8-ab]heptalen-2-yl)naphthalen-2-ol] are 0.7 nM, 4 nM and 29 nM.
As for `C#Cc1c(F)c(F)cc2cc(O)cc(-c3nc4c5c(nc(OC[C@@]67CCCN6C[C@H](F)C7)nc5c3F)N3C[C@H]5CC[C@H](N5)[C@H]3CO4)c12` [Example 30, 5-ethynyl-6,7-difluoro-4-((5aS,6S,9R)-1-fluoro-12-(((2R,7aS)-2-fluorotetrahydro-1H-pyrrolizin-7a(5H)-yl)methoxy)-5a,6,7,8,9,10-hexahydro-5H-4-oxa-3,10a,11,13,14-pentaaza-6,9-methanonaphtho[1,8-ab]heptalen-2-yl)naphthalen-2-ol], in assay [1], the IC50 is 0.2 nM. Moreover, the results for the EC50 in assay [2] and in assay [3] were 11 nM and 260 nM, respectively.
Turning to `C#Cc1c(F)ccc2cc(O)cc(-c3nc4c5c(nc(OCC6(CN7CCCOCC7)CC6)nc5c3F)N3C[C@H]5CC[C@H](N5)[C@H]3CO4)c12` [Example 35, 4-((5aS,6S,9R)-12-((1-((1,4-oxazepan-4-yl)methyl)cyclopropyl)methoxy)-1-fluoro-5a,6,7,8,9,10-hexahydro-5H-4-oxa-3,10a,11,13,14-pentaaza-6,9-methanonaphtho[1,8-ab]heptalen-2-yl)-5-ethynyl-6-fluoronaphthalen-2-ol], the IC50 in assay [1] came out at 0.3 nM. The EC50 in assay [2] worked out at 6 nM; in assay [3] it was 17 nM.
On the same counts, the results for `C#Cc1c(F)ccc2cc(O)cc(-c3nc4c5c(nc(OC[C@@]67CCCN6[C@H](COC(=O)N6CCCCCC6)CC7)nc5c3F)N3C[C@H]5CC[C@H](N5)[C@H]3CO4)c12` [Example 38, ((3S,7aS)-7a-((((5aS,6S,9R)-2-(8-ethynyl-7-fluoro-3-hydroxynaphthalen-1-yl)-1-fluoro-5a,6,7,8,9,10-hexahydro-5H-4-oxa-3,10a,11,13,14-pentaaza-6,9-methanonaphtho[1,8-ab]heptalen-12-yl)oxy)methyl)hexahydro-1H-pyrrolizin-3-yl)methyl azepane-1-carboxylate] are 0.3 nM, 28 nM and 47 nM.
On the same counts, the results for `C#Cc1c(F)ccc2cc(O)cc(-c3nc4c5c(nc(OC[C@@]67CCCN6[C@H](COC(=O)N(C)C)CC7)nc5c3F)N3C[C@H]5CC[C@H](N5)[C@H]3CO4)c12` [Example 39, ((3S,7aS)-7a-((((5aS,6S,9R)-2-(8-ethynyl-7-fluoro-3-hydroxynaphthalen-1-yl)-1-fluoro-5a,6,7,8,9,10-hexahydro-5H-4-oxa-3,10a,11,13,14-pentaaza-6,9-methanonaphtho[1,8-ab]heptalen-12-yl)oxy)methyl)hexahydro-1H-pyrrolizin-3-yl)methyl dimethylcarbamate] are 0.4 nM, 48 nM and 96 nM.
